Measurements published in article PMC12514245, “Impaired migration and lung invasion of human melanoma by a novel small molecule targeting the transmembrane domain of death receptor p75^NTR” (EMBO Molecular Medicine, 2025).

Biological target: T1, full-length p75^NTR in COS cells (Rattus norvegicus, UniProt P07174)
T1 construct: COS cells expressing full length, GFP-tagged rat p75^NTR; expressed in transfected cells; host or cells: COS-7
T1 sequence (P07174 30-425): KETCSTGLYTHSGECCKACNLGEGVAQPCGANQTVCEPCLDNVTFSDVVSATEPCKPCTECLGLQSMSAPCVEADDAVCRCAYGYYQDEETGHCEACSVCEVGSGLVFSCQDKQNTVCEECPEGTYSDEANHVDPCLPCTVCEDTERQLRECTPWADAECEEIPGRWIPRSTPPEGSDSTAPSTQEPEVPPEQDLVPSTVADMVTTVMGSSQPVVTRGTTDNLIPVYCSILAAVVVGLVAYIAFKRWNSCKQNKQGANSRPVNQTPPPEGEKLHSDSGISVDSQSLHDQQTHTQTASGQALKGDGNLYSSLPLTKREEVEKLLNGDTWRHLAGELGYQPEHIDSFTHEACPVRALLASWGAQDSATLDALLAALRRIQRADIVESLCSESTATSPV
Experiment: Live cell homo-FRET anisotropy, wild-type p75NTR
Format: cell-based
Parameters: key to average anisotropy change, wt: fold change vs mean of 6 pre-treatment time points (baseline ≈ 100)
Conditions: for average anisotropy change, wt: 10 μM
Source text: Previous real-time homo-FRET anisotropy studies by ours as well as other laboratories have shown that the intracellular death domains of p75^NTR are associated with each other (high FRET, low anisotropy state) under basal conditions (Vilar et al, [2009]; Sykes et al, [2012]), but neurotrophin binding induces transient separation of p75^NTR death domains (low FRET, high anisotropy state) manifested as oscillations in real-time anisotropy measurements (Lin et al, [2015]; Tanaka et al, [2016]; Goh et al, [2018]). COS cells expressing full length, GFP-tagged rat p75^NTR were treated with vehicle or Div17E5 and changes in anisotropy levels were recorded over time.
Anisotropy imaging in COS-7 cells that were transfected with a rat p75^NTR-EGFP* fusion construct was done as previously described (Goh, Lin et al, [2018]). EGFP* carries a […] mutation rendering monomeric EGFP. Changes in anisotropy were expressed as fold change at each time point (every 30 s) in comparison to the mean of 6 time points obtained prior to addition of treatment. Images were acquired using Nikon Ti-E based live cell epi-fluorescence microscope and MetaMorph software and analyzed using MatLab from Mathworks.

In the case of `Oc1ccc(-c2cncc(Nc3ccc(Br)c(Cl)c3)n2)cc1` [Div17E5], the “real-time homo-FRET anisotropy” value (10 µM) is reported as “induced oscillations in real-time anisotropy”, the “average anisotropy change, wt” value (0 min after compound addition) is reported as 106 and the “average anisotropy change, wt” value (0.5 min after compound addition) is reported as 88. The “average anisotropy change, wt” value (1 min after compound addition) was 110, the “average anisotropy change, wt” value (1.5 min after compound addition) was 101 and the “average anisotropy change, wt” value (2 min after compound addition) was 115. For the same molecule, the “average anisotropy change, wt” value (2.5 min after compound addition) was 82, the “average anisotropy change, wt” value (3 min after compound addition) was 112 and the “average anisotropy change, wt” value (3.5 min after compound addition) was 105. The “average anisotropy change, wt” value (4 min after compound addition) was 80, the “average anisotropy change, wt” value (4.5 min after compound addition) was 111 and the “average anisotropy change, wt” value (5 min after compound addition) was 83. For the same molecule, the “average anisotropy change, wt” value (5.5 min after compound addition) was 99, the “average anisotropy change, wt” value (6 min after compound addition) was 121 and the “average anisotropy change, wt” value (6.5 min after compound addition) was 122. For the same molecule, the “average anisotropy change, wt” value (7 min after compound addition) was 100, the “average anisotropy change, wt” value (7.5 min after compound addition) was 100 and the “average anisotropy change, wt” value (8 min after compound addition) was 74. For the same molecule, the “average anisotropy change, wt” value (8.5 min after compound addition) was 96, the “average anisotropy change, wt” value (9 min after compound addition) was 96 and the “average anisotropy change, wt” value (9.5 min after compound addition) was 103. The “average anisotropy change, wt” value (10 min after compound addition) was 99, the “average anisotropy change, wt” value (10.5 min after compound addition) was 110 and the “average anisotropy change, wt” value (11 min after compound addition) was 95. For the same molecule, the “average anisotropy change, wt” value (11.5 min after compound addition) was 89, the “average anisotropy change, wt” value (12 min after compound addition) was 110 and the “average anisotropy change, wt” value (12.5 min after compound addition) was 95. For the same molecule, the “average anisotropy change, wt” value (13 min after compound addition) was 108, the “average anisotropy change, wt” value (13.5 min after compound addition) was 110 and the “average anisotropy change, wt” value (14 min after compound addition) was 100. The “average anisotropy change, wt” value (14.5 min after compound addition) was 105, the “average anisotropy change, wt” value (15 min after compound addition) was 94 and the “average anisotropy change, wt” value (-0.5 min after compound addition) was 104. The “average anisotropy change, wt” value (-1 min after compound addition) was 103, the “average anisotropy change, wt” value (-1.5 min after compound addition) was 97 and the “average anisotropy change, wt” value (-2 min after compound addition) was 101. For the same molecule, the “average anisotropy change, wt” value (-2.5 min after compound addition) was 97 and the “average anisotropy change, wt” value (-3 min after compound addition) was 98.
